Earlier results, collected in patent US20090182041A1, “CONTROL OF CANCER WITH ANNONACEOUS EXTRACTS” (NATURE'S SUNSHINE PRODUCTS, INC., priority 2002, published 2009).

Experiments:
[1] = tested on: NADH oxidase found in the plasma membranes of tumor cells; settings: substantially purified form
[2] = tested on: mitochondrial complex I (NADH: ubiquinone oxidoreductase); settings: substantially purified form

Molecule | inhibition of NADH oxidase in the plasma membranes of tumor cells [1] | inhibition of complex I in the electron transport system in mitochondria [2]
CCCCCCCCCC[C@@H](O)[C@H]1CC[C@@H]([C@H]2CC[C@H]([C@H](O)CCCCCCCCCC[C@@H](O)CC3=C[C@H](C)OC3=O)O2)O1 [trilobacin] | inhibit | most powerful inhibitors known
bullatacin | inhibit | most powerful inhibitors known
asimicin | inhibit | most powerful inhibitors known
